Measured values published in patent US12590062B2, “PD-1/PD-L1 inhibitors” (Gilead Sciences, Inc., priority 2017, dated 2026).

Tests used:
PD-1/PD-L1 = PD-1/PD-L1 (Homo sapiens, UniProt Q9NZQ7); assay: PD-1/PD-L1 biochemical protein-protein interaction assay (ALPHA); format: binding; conditions: 0.3 nM His tagged PD-L1, 2.5 nM biotinylated Fc-PD-1, 60 minutes at 25° C., read-out: IC50 PD-L1-PD-1 Alpha IC50-mono PD-L1-fcP-D1
How it was run: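 Compound blockade of the PD-1/PD-L1 extracellular-domain interaction measured as reduced ALPHA signal after 60 min at 25 °C, pH 7.4 Hepes buffer with EDTA, Tween 20 and BSA. Final proteins: His-tagged PD-L1 0.3 nM, biotinylated Fc-PD-1 2.5 nM; four-parameter curve fit gives IC50.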

PD-1/PD-L1 interaction = target: T1, PD-1/PD-L1 interaction (Homo sapiens, UniProt Q9NZQ7); assay: PD-1/PD-L1 NFAT reporter co-culture assay; format: cell-based; conditions: Jurkat PD-1 NFAT-luciferase cells co-cultured with aAPC-PD-L1 CHO cells, 6 hrs at 37° C.; read-out: EC50 NFAT Luciferase
T1 construct: expressed in transfected cells; host or cells: CHO cells (aAPC-PD-L1) co-cultured with Jurkat cells overexpressing PD-1 and an NFAT-luciferase reporter
T1 sequence (Q9NZQ7 19-290): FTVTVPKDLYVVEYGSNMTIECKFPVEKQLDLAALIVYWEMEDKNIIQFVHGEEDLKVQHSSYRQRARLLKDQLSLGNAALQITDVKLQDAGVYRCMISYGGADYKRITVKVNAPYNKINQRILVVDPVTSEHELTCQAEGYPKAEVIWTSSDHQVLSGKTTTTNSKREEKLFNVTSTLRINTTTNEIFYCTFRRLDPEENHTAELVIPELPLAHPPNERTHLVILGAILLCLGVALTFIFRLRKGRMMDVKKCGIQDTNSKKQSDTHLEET
How it was run: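 First, CHO cells displaying anti-CD3 antibody and PD-L1 were plated overnight. Next, compound-treated PD-1 Jurkat NFAT-luciferase reporter cells in 2% FBS RPMI were added for 6 h at 37 °C. Finally, ONE-Glo luminescence was read and EC50 values fitted with a four-parameter equation.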

PD-L1 = target: T2, PD-L1 (Homo sapiens, UniProt Q9NZQ7); assay: PD-L1/PD-L1 dimerization biochemical protein-protein interaction assay (ALPHA); format: binding; conditions: compound-induced PD-L1 dimerization, head prints '1 nM' (0.5 nM His-tagged PD-L1 and 0.5 nM FLAG-tagged PD-L1), read-out: AC50 PDL1 Dimer Alpha 1 nM
T2 construct: determine if they can specifically dimerize the extracellular domains of PD-L1
T2 sequence (Q9NZQ7 19-238 limits assumed): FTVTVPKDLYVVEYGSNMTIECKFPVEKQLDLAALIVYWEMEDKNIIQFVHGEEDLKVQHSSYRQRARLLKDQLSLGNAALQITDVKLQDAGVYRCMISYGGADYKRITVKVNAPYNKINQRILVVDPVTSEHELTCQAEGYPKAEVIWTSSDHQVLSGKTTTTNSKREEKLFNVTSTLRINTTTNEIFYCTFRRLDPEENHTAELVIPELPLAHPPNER
T2 sequence (Q9NZQ7 19-238 limits assumed): as above
How it was run: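 After 2 h at 25 °C with compound, His- and FLAG-tagged PD-L1 ECDs (each 0.5 nM final; 25 mM Hepes pH 7.4, 150 mM NaCl) were detected by sequential anti-His acceptor and anti-FLAG donor bead incubations. Dose-response curves fitted to four-parameter equation for AC50.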

Sequence of PD-1/PD-L1 (Q9NZQ7 19-238 limits assumed): as above

Row | SMILES | IC50 (PD-1/PD-L1) | EC50 (PD-1/PD-L1 interaction) | AC50 (PD-L1)
1 | Cc1c(COc2cc(OCc3cncc(C#N)c3)c(CN3C[C@@H](O)C[C@H]3C(=O)O)cc2Cl)cccc1-c1cccc(-c2ccc3c(c2)CC[C@H]3N(C)C)c1C [Example 377, (2S,4S)-1-(5-chloro-2-((5-cyanopyridin-3-yl)methoxy)-4-((3′-((R)-1-(dimethylamino)-2,3-dihydro-1H-inden-5-yl)-2,2′-dimethyl-[1,1′-biphenyl]-3-yl)methoxy)benzyl)-4-hydroxypyrrolidine-2-carboxylic acid] | 0.178 nM | 262 nM | 231 nM
2 | Cc1c(COc2cc(OCc3cncc(C#N)c3)c(CNCCO)cc2Cl)cccc1-c1cccc(-c2ccc(C3CCCN3)cc2)c1C (stereo not drawn) [Example 379, 5-((4-chloro-5-((2,2′-dimethyl-4″-(pyrrolidin-2-yl)-[1,1′:3′,1″-terphenyl]-3-yl)methoxy)-2-(((2-hydroxyethyl)amino)methyl)phenoxy)methyl)nicotinonitrile] | 2.38 nM | 415 nM | 153 nM
3 | Cc1c(COc2cc(OCc3cncc(C#N)c3)c(CNC[C@@H](O)CC(=O)O)cc2Cl)cccc1-c1cccc(-c2ccc([C@H](C)N(C)C)cc2)c1C [Example 380, (S)-4-((5-chloro-2-((5-cyanopyridin-3-yl)methoxy)-4-((4″-((S)-1-(dimethylamino)ethyl)-2,2′-dimethyl-[1,1′:3′,1″-terphenyl]-3-yl)methoxy)benzyl)amino)-3-hydroxybutanoic acid] | 0.282 nM | 652 nM | 184 nM
4 | Cc1c(COc2cc(OCc3cncc(C#N)c3)c(CNC[C@@H](O)CC(=O)O)cc2Cl)cccc1-c1cccc(-c2ccc3c(c2)CCC3N(C)C)c1C (stereo partly drawn) [Example 381, (3S)-4-((5-chloro-2-((5-cyanopyridin-3-yl)methoxy)-4-((3′-(1-(dimethylamino)-2,3-dihydro-1H-inden-5-yl)-2,2′-dimethyl-[1,1′-biphenyl]-3-yl)methoxy)benzyl)amino)-3-hydroxybutanoic acid] | 0.158 nM | 219 nM | 144 nM
5 | Cc1c(COc2cc(OCc3cncc(C#N)c3)c(CN(C)C)cc2Cl)cccc1-c1cccc(-c2ccc(CN(C)C)nc2)c1C [Example 382, 5-((4-chloro-2-((dimethylamino)methyl)-5-((3′-(6-((dimethylamino)methyl)pyridin-3-yl)-2,2′-dimethyl-[1,1′-biphenyl]-3-yl)methoxy)phenoxy)methyl)nicotinonitrile] | 0.304 nM | 1230 nM | 334 nM
6 | Cc1c(COc2cc(OCc3cncc(C#N)c3)c(CNC[C@@H](O)CC(=O)O)cc2Cl)cccc1-c1cccc(-c2ccc(CN(C)C)cc2)c1C [Example 383, (S)-4-((5-chloro-2-((5-cyanopyridin-3-yl)methoxy)-4-((4″-((dimethylamino)methyl)-2,2′-dimethyl-[1,1′:3′,1″-terphenyl]-3-yl)methoxy)benzyl)amino)-3-hydroxybutanoic acid] | 0.252 nM | 467 nM | 157 nM
7 | Cc1c(COc2cc(OCc3cncc(C#N)c3)c(CNC[C@@H](O)CC(=O)O)cc2Cl)cccc1-c1cccc(-c2ccc(CNC[C@@H](O)CC(=O)O)cc2)c1C [Example 384, (S)-4-((4-((4″-((((S)-3-carboxy-2-hydroxypropyl)amino)methyl)-2,2′-dimethyl-[1,1′:3′,1″-terphenyl]-3-yl)methoxy)-5-chloro-2-((5-cyanopyridin-3-yl)methoxy)benzyl)amino)-3-hydroxybutanoic acid] | 0.112 nM | 154 nM | 154 nM
8 | COc1cc(COc2cccc(-c3cccc(COc4cc(OCc5cncc(C#N)c5)c(CNC[C@@H](O)CC(=O)O)cc4Cl)c3C)c2C)c(Cl)cc1CNC[C@@H](O)CC(=O)O [Example 389, (S)-4-((4-(((3′-((4-((((S)-3-carboxy-2-hydroxypropyl)amino)methyl)-2-chloro-5-((5-cyanopyridin-3-yl)methoxy)phenoxy)methyl)-2,2′-dimethyl-[1,1′-biphenyl]-3-yl)oxy)methyl)-5-chloro-2-methoxybenzyl)amino)-3-hydroxybutanoic acid] | 0.374 nM | 306 nM | 120 nM
9 | Cc1c(COc2cc(OCc3cncc(C#N)c3)c(CNC[C@@H](O)CC(=O)O)cc2Cl)cccc1-c1cccc(OCc2cc(OCc3cncc(C#N)c3)c(CNC[C@@H](O)CC(=O)O)cc2Cl)c1C [Example 390, (S)-4-((4-((3′-((4-((((S)-3-carboxy-2-hydroxypropyl)amino)methyl)-2-chloro-5-((5-cyanopyridin-3-yl)methoxy)benzyl)oxy)-2,2′-dimethyl-[1,1′-biphenyl]-3-yl)methoxy)-5-chloro-2-((5-cyanopyridin-3-yl)methoxy)benzyl)amino)-3-hydroxybutanoic acid] | 0.324 nM | 120 nM | 97.5 nM
10 | Cc1c(COc2cc(OCc3cncc(C#N)c3)c(CNCC3(O)CC3)cc2Cl)cccc1-c1cccc(-c2ccc(OCCNCCO)cc2)c1C [Example 391, 5-((4-chloro-2-((((1-hydroxycyclopropyl)methyl)amino)methyl)-5-((4″-(2-((2-hydroxyethyl)amino)ethoxy)-2,2′-dimethyl-[1,1′:3′,1″-terphenyl]-3-yl)methoxy)phenoxy)methyl)nicotinonitrile] | 1.42 nM | 305 nM | 243 nM
11 | Cc1c(COc2cc(OCc3cncc(C#N)c3)c(CNC[C@@H](O)CC(=O)O)cc2Cl)cccc1-c1cccc(OCc2ccc(CNC[C@@H](O)CC(=O)O)cn2)c1C [Example 392, (S)-4-(((6-(((3′-((4-((((S)-3-carboxy-2-hydroxypropyl)amino)methyl)-2-chloro-5-((5-cyanopyridin-3-yl)methoxy)phenoxy)methyl)-2,2′-dimethyl-[1,1′-biphenyl]-3-yl)oxy)methyl)pyridin-3-yl)methyl)amino)-3-hydroxybutanoic acid] | 0.051 nM | 351 nM | 232 nM
12 | Cc1c(COc2cc(OCc3cncc(C#N)c3)c(CNC[C@@H](O)CC(=O)O)cc2Cl)cccc1-c1cccc(-c2nc3c(Cl)cc(CNC[C@@H](O)CC(=O)O)cn3n2)c1C [Example 393, (S)-4-(((2-(3′-((4-((((S)-3-carboxy-2-hydroxypropyl)amino)methyl)-2-chloro-5-((5-cyanopyridin-3-yl)methoxy)phenoxy)methyl)-2,2′-dimethyl-[1,1′-biphenyl]-3-yl)-8-chloro-[1,2,4]triazolo[1,5-a]pyridin-6-yl)methyl)amino)-3-hydroxybutanoic acid] | 0.064 nM | 118 nM | 84 nM
13 | Cc1c(COc2cc(OCc3cncc(C#N)c3)c(CNC[C@@H](O)CC(=O)O)cc2Cl)cccc1-c1cccc(-c2cn3cc(CNC[C@@H](O)CC(=O)O)ccc3n2)c1C [Example 394, (S)-4-(((2-(3′-((4-((((S)-3-carboxy-2-hydroxypropyl)amino)methyl)-2-chloro-5-((5-cyanopyridin-3-yl)methoxy)phenoxy)methyl)-2,2′-dimethyl-[1,1′-biphenyl]-3-yl)imidazo[1,2-a]pyridin-6-yl)methyl)amino)-3-hydroxybutanoic acid] | 0.102 nM | 435 nM | 130 nM
14 | Cc1c(COc2cc(OCc3cncc(C#N)c3)c(CNC[C@@H](O)CC(=O)O)cc2Cl)cccc1-c1cccc(-c2nc3c(C)c(CNC[C@@H](O)CC(=O)O)ccc3s2)c1C [Example 395, (S)-4-(((2-(3′-((4-((((S)-3-carboxy-2-hydroxypropyl)amino)methyl)-2-chloro-5-((5-cyanopyridin-3-yl)methoxy)phenoxy)methyl)-2,2′-dimethyl-[1,1′-biphenyl]-3-yl)-4-methylbenzo[d]thiazol-5-yl)methyl)amino)-3-hydroxybutanoic acid] | 0.217 nM | 151 nM | 89.6 nM
15 | Cc1c(-c2nc3ccc(CNC[C@@H](O)CC(=O)O)cc3s2)cccc1-c1cccc2c1CC[C@@H]2Oc1nc(OCc2cncc(C#N)c2)c(CNC[C@@H](O)CC(=O)O)cc1Cl [Example 396, (S)-4-(((2-(3-((S)-1-((5-((((S)-3-carboxy-2-hydroxypropyl)amino)methyl)-3-chloro-6-((5-cyanopyridin-3-yl)methoxy)pyridin-2-yl)oxy)-2,3-dihydro-1H-inden-4-yl)-2-methylphenyl)benzo[d]thiazol-6-yl)methyl)amino)-3-hydroxybutanoic acid] | 0.064 nM | 105 nM | 37.9 nM
16 | COc1cc(-c2cccc(-c3cccc(COc4nc(OC)c(CN5CC6(C5)CN(C(C)=O)C6)cc4Br)c3Cl)c2Cl)ccc1CN1CC2(C1)CN(C(C)=O)C2 [Example 425] | 0.755 nM | 544 nM | 226 nM
17 | COc1nc(-c2cccc(-c3cccc(OCc4ccc(CNC[C@@H]5CCC(=O)N5)cc4)c3Cl)c2Cl)ccc1CNC[C@@H]1CCC(=O)N1 [Example 426] | 0.397 nM | 634 nM | 408 nM
